#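 Step 1: Grow cells in 96-well plates. Step 2: Expose to compound for 48 hours at 5 concentrations. Step 3: Interpolate endpoints linearly; if unreached, use highest concentration. Definition used: TGI = concentration required for complete inhibition of growth.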
# Legend:
# Experiment in all cases: NCI tumour cell line growth inhibition, 48 h
# HOP-18 NSCLC = test system: HOP-18 NSCLC
# XF 498 CNS = test system: XF 498 CNS
# SNB-78 CNS = test system: SNB-78 CNS
# LXFL 529 NSCLC = test system: LXFL 529 NSCLC
# DLD-1 colon = test system: DLD-1 colon
# DMS 114 small cell lung = test system: DMS 114 small cell lung
# M19-MEL melanoma = test system: M19-MEL melanoma
# P388 leukemia = test system: P388 leukemia
# SN12K1 renal = test system: SN12K1 renal
# P388/ADR leukemia = test system: P388/ADR leukemia
SMILES,TGI (HOP-18 NSCLC) [µM],TGI (XF 498 CNS) [µM],TGI (SNB-78 CNS) [µM],TGI (LXFL 529 NSCLC) [µM],TGI (DLD-1 colon) [µM],TGI (DMS 114 small cell lung) [µM],TGI (M19-MEL melanoma) [µM],TGI (P388 leukemia) [µM],TGI (SN12K1 renal) [µM],TGI (P388/ADR leukemia) [µM]
CCOc1ccc(C(C)c2cc3c(cc2OC)OCO3)cc1 (stereo not given),> 100,0.823,> 100,> 100,82.5,0.85,,,,
COC1=CC(=O)C=C(OC)C1=O,79.7,6.34,56.8,,27.9,13.5,8.19,1.25,18,1.08
